Data: ChEMBL document CHEMBL5046279, “Discovery of a Partial Glucokinase Activator Clinical Candidate: Diethyl ((3-(3-((5-(Azetidine-1-carbonyl)pyrazin-2-yl)oxy)-5-isopropoxybenzamido)-1H-pyrazol-1-yl)methyl)phosphonate (BMS-820132)” (J Med Chem, 2022)
Values after ≈ are worked out from the molar mass of the structure shown.

How the values were obtained:
[1] = AUC (0 to 24 hrs) in cynomolgus monkey at 3 mg/kg, iv measured upto 24 hrs; assay type: ADME, organism-based, Macaca fascicularis; set-up: route intravenous, dose 3 mg/kg, time <=24; details: in vivo
[2] = Systemic plasma clearance in Beagle dog at 3 mg/kg, iv measured upto 24 hrs; assay type: ADME, organism-based, Canis lupus familiaris
[3] = system: Mus musculus; assay: Anti-hyperglycemic activity in C57BL/6J DIO mouse assessed as reduction in plasma glucose level at 3 umol/kg, po qd measured on day 14 by OGTT; assay type: functional; set-up: scale not given: the % may be the effect or the level left; details: dose 3 µM/Kg; time 24 hrs; at 3 µmol/kg
[4] = system: Salmonella typhimurium; assay: Mutagenicity in Salmonella typhimurium TA100 at 5000 ug/plate in presence of S9 fraction by Ames test; assay type: toxicity, organism-based; details: salmonella enterica subsp. enterica serovar typhimurium, dose 5000 µg
[5] = Protein binding in mouse serum; assay type: ADME, cell-free; details: pooled result: one value given for 5 cell lines, strains, targets or settings, read-out: PB (converted)
[6] = system: Mus musculus; assay: Anti-hyperglycemic activity in C57BL/6J DIO mouse assessed as reduction in plasma glucose AUC at 3 umol/kg, po measured after 120 mins by OGTT; assay type: functional; set-up: scale not given: the % may be the effect or the level left; details: dose 3 µM/Kg, 2 h, at 3 µmol/kg
[7] = system: Mus musculus; assay: Anti-hyperglycemic activity in C57BL/6J DIO mouse assessed as reduction in plasma glucose AUC at 1 umol/kg incubated for 120 mins by OGTT; assay type: functional; set-up: scale not given: the % may be the effect or the level left; details: dose 1 µM/Kg, 2 h, at 1 µmol/kg
[8] = AUC (0 to 24 hrs) in Beagle dog at 3 mg/kg, po measured upto 24 hrs; assay type: ADME, organism-based, Canis lupus familiaris; set-up: route oral, dose 3 mg/kg, time <=24; details: in vivo
[9] = AUC (0 to 24 hrs) in Beagle dog at 3 mg/kg, iv measured upto 24 hrs; assay type: ADME, organism-based, Canis lupus familiaris; set-up: route intravenous, dose 3 mg/kg, time <=24; details: in vivo
[10] = system: Salmonella typhimurium; assay: Mutagenicity in Salmonella typhimurium TA1535 at 5000 ug/plate in absence of S9 fraction by Ames test; assay type: toxicity, organism-based; details: salmonella enterica subsp. enterica serovar typhimurium; dose 5000 µg
[11] = target: T1, Nuclear receptor subfamily 1 group I member 2 (Homo sapiens, UniProt O75469); assay: Induction of human PXR upto 50 uM
T1 sequence (O75469 whole entry): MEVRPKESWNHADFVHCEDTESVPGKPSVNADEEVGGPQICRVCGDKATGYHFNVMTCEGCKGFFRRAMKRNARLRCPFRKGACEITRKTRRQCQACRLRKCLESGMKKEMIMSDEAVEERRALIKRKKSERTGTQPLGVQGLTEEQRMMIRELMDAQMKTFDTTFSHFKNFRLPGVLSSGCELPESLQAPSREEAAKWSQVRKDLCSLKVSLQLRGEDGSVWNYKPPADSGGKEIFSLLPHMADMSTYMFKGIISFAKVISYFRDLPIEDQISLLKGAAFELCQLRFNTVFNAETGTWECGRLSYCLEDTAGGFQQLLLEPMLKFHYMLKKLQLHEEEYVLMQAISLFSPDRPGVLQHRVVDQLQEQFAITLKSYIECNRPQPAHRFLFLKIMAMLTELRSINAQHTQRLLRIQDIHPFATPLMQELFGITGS

[12] = system: Salmonella typhimurium; assay: Mutagenicity in Salmonella typhimurium TA100 at 5000 ug/plate in absence of S9 fraction by Ames test; assay type: toxicity, organism-based; details: salmonella enterica subsp. enterica serovar typhimurium; dose 5000 µg
[13] = Oral bioavailability in CD1 mouse at 5 mg/kg measured upto 24 hrs by LC-MS/MS analysis; assay type: ADME, organism-based; details: in vivo
[14] = Half life in Sprague-Dawley rat at 2.5 mg/kg, po measured upto 24 hrs by LC-MS/MS analysis; assay type: ADME, organism-based; details: in vivo
[15] = system: Mus musculus; assay: Anti-hyperglycemic activity in C57BL/6J DIO mouse assessed as reduction in plasma glucose level at 30 umol/kg measured at 1 hr post dose on day 1 by OGTT; assay type: functional; set-up: scale not given: the % may be the effect or the level left; details: dose 30 µM/Kg, at 30 µmol/kg
[16] = system: Mus musculus; assay: Anti-hyperglycemic activity in C57BL/6J DIO mouse assessed as reduction in plasma glucose level at 30 umol/kg measured after 14 days; assay type: functional; set-up: scale not given: the % may be the effect or the level left; details: dose 30 µM/Kg; time 14 day; at 30 µmol/kg
[17] = Half life in CD1 mouse at 2.5 mg/kg, iv measured upto 24 hrs by LC-MS/MS analysis; assay type: ADME, organism-based; details: in vivo
[18] = system: Mus musculus; assay: Anti-hyperglycemic activity in C57BL/6J DIO mouse assessed as reduction in plasma glucose level at 3 umol/kg measured at 1 hr post dose on day 1 by OGTT; assay type: functional; set-up: scale not given: the % may be the effect or the level left; details: dose 3 µM/Kg, at 3 µmol/kg
[19] = Tmax in Beagle dog at 3 mg/kg, po measured upto 24 hrs; assay type: ADME, organism-based, Canis lupus familiaris; details: in vivo
[20] = Tmax in cynomolgus monkey at 3 mg/kg, po measured upto 24 hrs; assay type: ADME, organism-based, Macaca fascicularis; details: in vivo
[21] = system: Salmonella typhimurium; assay: Mutagenicity in Salmonella typhimurium TA98 at 5000 ug/plate in presence of S9 fraction by Ames test; assay type: toxicity, organism-based; details: salmonella enterica subsp. enterica serovar typhimurium, dose 5000 µg
[22] = system: Salmonella typhimurium; assay: Mutagenicity in Salmonella typhimurium TA98 at 5000 ug/plate in absence of S9 fraction by Ames test; assay type: toxicity, organism-based; details: salmonella enterica subsp. enterica serovar typhimurium; dose 5000 µg
[23] = Cmax in CD1 mouse at 5 mg/kg, po measured upto 24 hrs by LC-MS/MS analysis; assay type: ADME, organism-based; set-up: route oral, dose 5 mg/kg, time <=24; details: in vivo
[24] = target: ATP-dependent translocase ABCB1 (Homo sapiens, UniProt P08183); assay: Inhibition of P-gp transporter (unknown origin)
Chain of ATP-dependent translocase ABCB1 (P08183 whole entry): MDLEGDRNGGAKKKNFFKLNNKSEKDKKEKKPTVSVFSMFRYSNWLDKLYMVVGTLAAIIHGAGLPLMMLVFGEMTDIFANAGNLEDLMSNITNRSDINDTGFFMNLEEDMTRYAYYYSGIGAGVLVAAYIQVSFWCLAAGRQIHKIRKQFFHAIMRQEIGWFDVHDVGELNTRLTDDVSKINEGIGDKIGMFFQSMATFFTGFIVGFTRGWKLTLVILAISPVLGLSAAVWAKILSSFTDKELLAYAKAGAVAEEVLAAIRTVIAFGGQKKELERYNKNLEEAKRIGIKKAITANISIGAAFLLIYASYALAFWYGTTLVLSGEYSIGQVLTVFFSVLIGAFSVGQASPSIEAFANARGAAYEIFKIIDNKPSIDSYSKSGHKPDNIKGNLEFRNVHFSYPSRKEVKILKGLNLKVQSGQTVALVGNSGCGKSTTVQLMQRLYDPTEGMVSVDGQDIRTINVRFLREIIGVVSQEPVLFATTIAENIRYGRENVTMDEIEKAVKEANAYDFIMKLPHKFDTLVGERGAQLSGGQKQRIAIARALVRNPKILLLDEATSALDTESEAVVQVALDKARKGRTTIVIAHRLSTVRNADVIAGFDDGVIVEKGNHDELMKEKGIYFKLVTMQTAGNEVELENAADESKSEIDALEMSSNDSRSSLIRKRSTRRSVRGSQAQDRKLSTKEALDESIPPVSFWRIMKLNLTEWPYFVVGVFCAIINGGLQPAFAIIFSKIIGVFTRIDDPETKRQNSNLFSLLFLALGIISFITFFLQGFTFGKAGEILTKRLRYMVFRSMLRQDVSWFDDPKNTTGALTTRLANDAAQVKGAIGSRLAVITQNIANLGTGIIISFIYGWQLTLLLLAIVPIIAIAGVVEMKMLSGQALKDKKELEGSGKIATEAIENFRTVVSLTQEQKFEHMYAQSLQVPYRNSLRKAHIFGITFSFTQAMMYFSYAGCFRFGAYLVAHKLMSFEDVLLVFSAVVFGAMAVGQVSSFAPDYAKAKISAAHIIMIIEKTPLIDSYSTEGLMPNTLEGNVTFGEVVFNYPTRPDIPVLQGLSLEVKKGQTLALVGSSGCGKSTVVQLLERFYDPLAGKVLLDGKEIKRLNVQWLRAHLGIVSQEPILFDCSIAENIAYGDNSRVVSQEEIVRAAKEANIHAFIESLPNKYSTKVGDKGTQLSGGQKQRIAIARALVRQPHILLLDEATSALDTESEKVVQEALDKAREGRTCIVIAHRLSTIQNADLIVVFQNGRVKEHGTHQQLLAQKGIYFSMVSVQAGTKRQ

[25] = Systemic plasma clearance in cynomolgus monkey at 3 mg/kg, iv measured upto 24 hrs; assay type: ADME, organism-based, Macaca fascicularis
[26] = Oral bioavailability in Sprague-Dawley rat at 5 mg/kg measured upto 24 hrs by LC-MS/MS analysis; assay type: ADME, organism-based; details: in vivo
[27] = Cmax in Sprague-Dawley rat at 5 mg/kg, po measured upto 24 hrs by LC-MS/MS analysis; assay type: ADME, organism-based; set-up: route oral, dose 5 mg/kg, time <=24; details: in vivo
[28] = Volume of distribution at steady state in CD1 mouse at 2.5 mg/kg, iv measured upto 24 hrs by LC-MS/MS analysis; assay type: ADME, organism-based; details: in vivo, read-out: Vdss
[29] = system: sodium channel; assay: Inhibition of sodium channel (unknown origin) at 1 Hz at 10 uM by patch clamp assay relative to control; assay type: toxicity; details: human
[30] = system: Mus musculus; assay: Anti-hyperglycemic activity in C57BL/6J DIO mouse assessed as reduction in plasma glucose level at 3 umol/kg measured after 14 days; assay type: functional; set-up: scale not given: the % may be the effect or the level left; details: dose 3 µM/Kg; time 14 day; at 3 µmol/kg
[31] = system: Salmonella typhimurium; assay: Mutagenicity in Salmonella typhimurium TA1537 at 5000 ug/plate in presence of S9 fraction by Ames test; assay type: toxicity, organism-based; details: salmonella enterica subsp. enterica serovar typhimurium, dose 5000 µg
[32] = AUC (0 to 24 hrs) in CD1 mouse at 5 mg/kg, po measured upto 24 hrs by LC-MS/MS analysis; assay type: ADME, organism-based; set-up: route oral, dose 5 mg/kg, time <=24; details: in vivo
[33] = system: Mus musculus; assay: Anti-hyperglycemic activity in C57BL/6J DIO mouse assessed as reduction in plasma glucose level at 30 umol/kg, po qd measured on day 14 by OGTT; assay type: functional; set-up: scale not given: the % may be the effect or the level left; details: dose 30 µM/Kg; time 24 hrs; at 30 µmol/kg
[34] = Systemic plasma clearance in CD1 mouse at 2.5 mg/kg, iv measured upto 24 hrs by LC-MS/MS analysis; assay type: ADME, organism-based
[35] = Aqueous solubility of the compound at pH 6.5 using amorphous form of sample; assay type: physicochemical; details: aqueous solution
[36] = Half life in Beagle dog at 3 mg/kg, iv measured upto 24 hrs; assay type: ADME, organism-based, Canis lupus familiaris; details: in vivo
[37] = system: Salmonella typhimurium; assay: Mutagenicity in Salmonella typhimurium TA1537 at 5000 ug/plate in absence of S9 fraction by Ames test; assay type: toxicity, organism-based; details: salmonella enterica subsp. enterica serovar typhimurium; dose 5000 µg
[38] = target: Voltage-gated inwardly rectifying potassium channel KCNH2 (Homo sapiens, UniProt Q12809); assay: Inhibition of hERG by patch clamp method; assay type: toxicity
Chain of Voltage-gated inwardly rectifying potassium channel KCNH2 (Q12809 whole entry): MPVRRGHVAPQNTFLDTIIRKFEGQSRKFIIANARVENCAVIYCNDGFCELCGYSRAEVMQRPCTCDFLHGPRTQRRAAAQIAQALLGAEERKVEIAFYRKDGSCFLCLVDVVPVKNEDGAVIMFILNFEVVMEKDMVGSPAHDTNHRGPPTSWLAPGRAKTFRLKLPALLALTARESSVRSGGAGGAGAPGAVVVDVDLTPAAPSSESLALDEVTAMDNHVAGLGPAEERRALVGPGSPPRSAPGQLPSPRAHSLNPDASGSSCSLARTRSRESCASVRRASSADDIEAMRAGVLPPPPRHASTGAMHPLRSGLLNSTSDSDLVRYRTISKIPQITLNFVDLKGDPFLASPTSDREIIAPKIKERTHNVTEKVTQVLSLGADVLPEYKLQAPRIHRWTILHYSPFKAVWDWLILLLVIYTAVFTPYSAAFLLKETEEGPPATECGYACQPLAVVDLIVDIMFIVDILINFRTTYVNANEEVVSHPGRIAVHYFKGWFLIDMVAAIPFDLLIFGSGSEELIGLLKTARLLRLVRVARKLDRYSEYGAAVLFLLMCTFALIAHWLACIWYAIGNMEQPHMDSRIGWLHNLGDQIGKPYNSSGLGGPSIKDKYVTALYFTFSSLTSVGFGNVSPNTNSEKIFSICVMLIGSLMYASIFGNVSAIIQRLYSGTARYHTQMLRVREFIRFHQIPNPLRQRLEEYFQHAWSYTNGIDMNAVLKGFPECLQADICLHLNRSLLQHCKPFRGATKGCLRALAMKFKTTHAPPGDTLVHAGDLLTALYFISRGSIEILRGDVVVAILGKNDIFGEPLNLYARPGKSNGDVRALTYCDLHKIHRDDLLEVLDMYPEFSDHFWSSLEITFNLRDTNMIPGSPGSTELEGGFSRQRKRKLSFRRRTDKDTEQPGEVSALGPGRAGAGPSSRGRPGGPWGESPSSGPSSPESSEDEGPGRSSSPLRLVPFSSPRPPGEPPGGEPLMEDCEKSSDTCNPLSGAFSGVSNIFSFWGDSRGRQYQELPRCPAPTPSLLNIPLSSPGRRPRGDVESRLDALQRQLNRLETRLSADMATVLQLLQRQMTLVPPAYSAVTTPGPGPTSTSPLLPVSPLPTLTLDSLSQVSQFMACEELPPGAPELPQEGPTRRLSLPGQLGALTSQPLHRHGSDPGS

CCOP(=O)(Cn1ccc(NC(=O)c2cc(Oc3cnc(C(=O)N4CCC4)cn3)cc(OC(C)C)c2)n1)OCC
AUC(0-t) [1]: 3.8 µM·h | clearance [2]: 7.2 mL/min/kg | Activity [3]: -16% | Activity [4]: Non-Toxic | fraction unbound [5]: 0.168 | Activity [6]: -31% | Activity [7]: -28% | AUC(0-t) [8]: 8 µM·h | AUC(0-t) [9]: 12.3 µM·h | Activity [10]: Non-Toxic | Activity [11]: Not Active | Activity [12]: Non-Toxic | bioavailability [13]: 100% | half-life [14]: 0.9 h | Activity [15]: -46% | Activity [16]: -63% | half-life [17]: 2.1 h | Activity [18]: -32% | Tmax [19]: 0.8 h | Tmax [20]: 1.3 h | Activity [21]: Non-Toxic | Activity [22]: Non-Toxic | Cmax [23]: 14.1 µM | IC50 [24]: 55 µM | clearance [25]: 22.7 mL/min/kg | bioavailability [26]: 90% | Cmax [27]: 13 µM | Vd [28]: 0.3 L/kg | inhibition at 10 µM [29]: 9% | Activity [30]: -48% | Activity [31]: Non-Toxic | AUC(0-t) [32]: 49.7 µM·h | Activity [33]: -46% | clearance [34]: 2.9 mL/min/kg | solubility [35]: 10 µg/mL (≈ 17.5 µM) | half-life [36]: 1.8 h | Activity [37]: Non-Toxic | IC50 [38]: > 80 µM
